Assay results from US20140127202A1, “ANTITUMOUR COMBINATIONS CONTAINING A VEGF INHIBITING AGENT AND IRINOTECAN” (Aventis Pharma S.A., priority 2007, published 2014).

Assays:
HCT116 human tumor = experiment: Antitumor activity and toxicity in mice grafted subcutaneously with HCT116 human tumor fragments; format: in vivo
Experimental: (§1) This effectiveness can be quantified, for example, by the log10 cell kill, which is determined according to the following equation:
(§2) log10 cell kill=T-C (days)/3.34×Td
(§3) in which T-C represents the delay in growth of the cells, which is the average time, in days, for the tumors of the treated group (T) and the tumors of the control group (C) to have reached a predetermined value (1 g for example), and Td represents the time, in days, necessary for the volume of the tumor to double in the control animals [T. H. Corbett et al., Cancer, 40, 2660.2680 (1977); F. M. Schabel et al., Cancer Drug Development, Part B, Methods in Cancer Research, 17, 3-51, New York, Academic Press Inc. (1979)]. A product is considered to be active if log10 cell kill is greater than or equal to 0.7. A product is considered to be very active if log10 cell kill is greater than 2.8.
(§4) The combination, used at its own maximum tolerated dose, in which each of the constituents is present at a dose generally less than or equal to its maximum tolerated dose, will show therapeutic synergy when the log10 cell kill is greater than the value of the log10 cell kill of the best constituent when it is administered alone, and in particular has a superiority of at least one log cell kill.
(§5) The effectiveness of the combinations on solid tumors can be determined experimentally in the following way:
(§6) The animals subjected to the experiment, generally mice, are grafted bilaterally, subcutaneously, with 30 to 60 mg of an HCT116 human tumor fragment (Brattain, M. G., Fine, W. D., Khaled, F. M., Thompson, J. and Brattain, D. E., Heterogeneity of malignant cells from a human colonic carcinoma. Cancer Res., 1981, 41, 1751-1756) on day 0. The animals bearing the tumors are randomized before being subjected to the various treatments and controls. In the case of treatment of tumors of the present invention, the tumors were allowed to develop to a size of between 48 and 294 mg, which made it possible to have a median tumor per group of between 129 and 162 mg. […] Animals bearing tumors were also subjected to the same treatments with the excipient alone in order to be able to dissociate the toxic effect of the excipient from the actual effect of the chemotherapy on the tumor. The chemotherapy was begun on day 12 after the tumor graft. The VEGF Trap injections were given subcutaneously simultaneously with the irinotecan injections, which themselves were given intravenously, according to a daily double injection. These injections were carried out on days 12, 15 and 18 after implantation of the tumor. The various groups of animals are weighed three to four times per week until the maximum weight loss is reached, and then the groups are weighed at least once a week until the end of the trial.
(§7) The tumors are measured two or three times a week until the tumor reaches approximately 2 g or until the death of the animal if the latter occurs before the tumor reaches 2 g. The animals are autopsied at the time of sacrifice.
(§8) The antitumor activity is determined according to the various parameters recorded.
(§9) Vials of 1 cm^3 containing 25 mg of VEGF Trap which are diluted in a buffer of 5 mM phosphate, 5 mM sodium citrate, 100 mM sodium chloride, polysorbate 20 and 20% sucrose are prepared according to the usual technique, for subcutaneous administration. The administration volume per mouse is 0.1 ml. The VEGF Trap is administered once a day, on days 12, 15 and 18 after implantation of the tumor.
(§10) 0.3 ml per mouse is prepared, according to the usual technique, for intravenous administration, from a commercially available solution at 20 mg/ml of irinotecan to be diluted with 5% dextrose in water.
(§11) These solutions are administered simultaneously, after a suitable dilution.
(§12) The treatment with irinotecan is repeated twice a day, with a 4-hour interval, on days 12, 15 and 18 after implantation of the tumor.
(§13) Tumor doubling time=3.2 days.
(§14) Abbreviations used: (T-C) delay in growth of the tumor, Ick=log cell kill.

[1] = as above; format: in vivo; settings: mouse, in vivo, iv; irinotecan alone, i.v. twice a day on days 12, 15, 18; read-out: maximum tolerated dose, total injected dose
Experimental: as §1, §2, §3, §4, §5, §6, §7, §8, §9, §10, §11, §12, §13, §14

[2] = target: PIGF (placental growth factor) (Homo sapiens, UniProt P49763); settings: cited from earlier work
Chain of PIGF (placental growth factor) (P49763 19-221): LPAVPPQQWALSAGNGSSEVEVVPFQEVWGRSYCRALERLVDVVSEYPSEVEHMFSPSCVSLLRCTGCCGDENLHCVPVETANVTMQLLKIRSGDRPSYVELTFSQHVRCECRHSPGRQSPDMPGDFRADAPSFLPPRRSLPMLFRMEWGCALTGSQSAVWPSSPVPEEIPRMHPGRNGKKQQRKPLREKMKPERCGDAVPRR

VEGF-A = target: T1, VEGF-A (Homo sapiens, UniProt P15692); settings: in comparison with Avastin (bevacizumab); cited from earlier work
T1 sequence (P15692 207-395 limits assumed): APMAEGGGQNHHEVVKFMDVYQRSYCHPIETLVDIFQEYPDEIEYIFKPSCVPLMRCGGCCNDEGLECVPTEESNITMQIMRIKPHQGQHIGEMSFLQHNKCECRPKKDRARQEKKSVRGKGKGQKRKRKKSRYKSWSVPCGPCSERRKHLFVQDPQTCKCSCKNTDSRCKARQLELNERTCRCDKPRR

VEGF-B = VEGF-B (Homo sapiens, UniProt P49765); settings: cited from earlier work
Chain of VEGF-B (P49765 22-207, species assumed): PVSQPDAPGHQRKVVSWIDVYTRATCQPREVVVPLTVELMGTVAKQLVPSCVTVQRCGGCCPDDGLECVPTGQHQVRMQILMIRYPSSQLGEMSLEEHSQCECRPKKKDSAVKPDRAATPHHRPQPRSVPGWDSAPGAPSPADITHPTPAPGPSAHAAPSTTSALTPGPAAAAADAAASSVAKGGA

[3] = CPT-11 alone, 12.5 mg/kg per injection i.v., 2x/d days 12, 15, 18, total 75.0 mg/kg, group 9
[4] = CPT-11 alone, 20.2 mg/kg per injection i.v., 2x/d days 12, 15, 18, total 121.2 mg/kg, group 8
[5] = CPT-11 alone, 32.5 mg/kg per injection i.v., 2x/d days 12, 15, 18, total 195.0 mg/kg, group 7
[6] = VEGF Trap alone, 2.5 mg/kg s.c. days 12, 15, 18, total 7.5 mg/kg, group 5
[7] = VEGF Trap alone, 10.0 mg/kg s.c. days 12, 15, 18, total 30.0 mg/kg, group 4
[8] = VEGF Trap alone, 25.0 mg/kg s.c. days 12, 15, 18, total 75.0 mg/kg, group 3
[9] = VEGF Trap alone, 40.0 mg/kg s.c. days 12, 15, 18, total 120.0 mg/kg, group 2

Compound: CCc1c2c(nc3ccc(OC(=O)N4CCC(N5CCCCC5)CC4)cc13)-c1cc3c(c(=O)n1C2)COC(=O)[C@]3(O)CC [CPT-11, irinotecan]
- Average time for the tumor to reach 750 mg (HCT116 human tumor; [3]): 37.6 days
- Comments (activity) (HCT116 human tumor; [3]): active
- Comments (dose level) (HCT116 human tumor; [3]): HNTD
- Death due to the product, with day of death (HCT116 human tumor; [3]): 0/8
- Log cell kill (HCT116 human tumor; [3]): 1.8
- Survivors without tumor at day 144 (HCT116 human tumor; [3]): 0/8
- T-C (HCT116 human tumor; [3]): 19.1 days
- Weight loss of the mouse (date of low-point) (HCT116 human tumor; CPT-11 alone, 12.5 mg/kg per injection i.v., 2x/d days 12, 15, 18, total 75.0 mg/kg, group 9, low-point day 21): −15.9%
- Comments (HCT116 human tumor; [4]): Toxic
- Death due to the product, with day of death (HCT116 human tumor; [4]): 0/8
- Comments (HCT116 human tumor; CPT-11 alone, 20.2 mg/kg per injection i.v., 2x/d days 12, 15, 18, total 121.2 mg/kg, group 8, listed as irinotecan): Toxicity was observed
- Weight loss of the mouse (date of low-point) (HCT116 human tumor; CPT-11 alone, 20.2 mg/kg per injection i.v., 2x/d days 12, 15, 18, total 121.2 mg/kg, group 8, low-point day 19): −21.9%
- Weight loss of the mouse (date of low-point) (HCT116 human tumor; CPT-11 alone, 20.2 mg/kg per injection i.v., 2x/d days 12, 15, 18, total 121.2 mg/kg, group 8, low-point day 19, listed as irinotecan): greater than 20%
- Comments (HCT116 human tumor; [5]): Toxic
- Death due to the product, with day of death (HCT116 human tumor; [5]): 0/7
- Comments (HCT116 human tumor; CPT-11 alone, 32.5 mg/kg per injection i.v., 2x/d days 12, 15, 18, total 195.0 mg/kg, group 7, listed as irinotecan): Toxicity was observed
- Weight loss of the mouse (date of low-point) (HCT116 human tumor; CPT-11 alone, 32.5 mg/kg per injection i.v., 2x/d days 12, 15, 18, total 195.0 mg/kg, group 7, low-point day 19): −23.1%
- Weight loss of the mouse (date of low-point) (HCT116 human tumor; CPT-11 alone, 32.5 mg/kg per injection i.v., 2x/d days 12, 15, 18, total 195.0 mg/kg, group 7, low-point day 19, listed as irinotecan): greater than 20%
- Death due to the product, with day of death (HCT116 human tumor; CPT-11 alone, 52.4 mg/kg per injection i.v., 2x/d (4 h apart) days 12, 15, 18, total 314.4 mg/kg, group 6, day of death 23): 1/8 (23)
- Death due to the product, with day of death (HCT116 human tumor; CPT-11 alone, 52.4 mg/kg per injection i.v., 2x/d (4 h apart) days 12, 15, 18, total 314.4 mg/kg, group 6, day of death 23, listed as irinotecan): a death
- Comments (HCT116 human tumor; CPT-11 alone, 52.4 mg/kg per injection i.v., 2x/d days 12, 15, 18, total 314.4 mg/kg, group 6): Toxic
- Comments (HCT116 human tumor; CPT-11 alone, 52.4 mg/kg per injection i.v., 2x/d days 12, 15, 18, total 314.4 mg/kg, group 6, listed as irinotecan): Toxicity was observed
- Weight loss of the mouse (date of low-point) (HCT116 human tumor; CPT-11 alone, 52.4 mg/kg per injection i.v., 2x/d days 12, 15, 18, total 314.4 mg/kg, group 6, low-point day 21): −27.0%
- maximum tolerated dose (HCT116 human tumor; irinotecan alone, i.v. twice a day on days 12, 15, 18): 12.5 mg/kg/inj
- MTD [1]: 75 mg/kg

Compound: VEGF Trap: fusion protein: D2 Ig domain of VEGFR1 fused to D3 Ig domain of VEGFR2, fused to the Fc domain of IgG1
- binding to PIGF (selectivity profile) [2]: also binds
- affinity for VEGF-A compared with Avastin (VEGF-A): much higher affinity
- Average time for the tumor to reach 750 mg (HCT116 human tumor; [6]): 20.2 days
- Comments (activity) (HCT116 human tumor; [6]): inactive
- Death due to the product, with day of death (HCT116 human tumor; [6]): 0/8
- Log cell kill (HCT116 human tumor; [6]): 0.2
- Survivors without tumor at day 144 (HCT116 human tumor; [6]): 0/8
- T-C (HCT116 human tumor; [6]): 1.7 days
- Weight loss of the mouse (date of low-point) (HCT116 human tumor; VEGF Trap alone, 2.5 mg/kg s.c. days 12, 15, 18, total 7.5 mg/kg, group 5, low-point day 19): −8.3 (19) %
- Average time for the tumor to reach 750 mg (HCT116 human tumor; [7]): 32.0 days
- Comments (activity) (HCT116 human tumor; [7]): active
- Death due to the product, with day of death (HCT116 human tumor; [7]): 0/8
- Log cell kill (HCT116 human tumor; [7]): 1.3
- Survivors without tumor at day 144 (HCT116 human tumor; [7]): 1/8
- T-C (HCT116 human tumor; [7]): 13.5 days
- Weight loss of the mouse (date of low-point) (HCT116 human tumor; VEGF Trap alone, 10.0 mg/kg s.c. days 12, 15, 18, total 30.0 mg/kg, group 4, low-point day 19): −5.0 (19) %
- Average time for the tumor to reach 750 mg (HCT116 human tumor; [8]): 36.8 days
- Comments (activity) (HCT116 human tumor; [8]): active
- Death due to the product, with day of death (HCT116 human tumor; [8]): 0/8
- Log cell kill (HCT116 human tumor; [8]): 1.7
- Survivors without tumor at day 144 (HCT116 human tumor; [8]): 0/8
- T-C (HCT116 human tumor; [8]): 18.3 days
- Weight loss of the mouse (date of low-point) (HCT116 human tumor; VEGF Trap alone, 25.0 mg/kg s.c. days 12, 15, 18, total 75.0 mg/kg, group 3, low-point day 13): −2.2 (13) %
- Average time for the tumor to reach 750 mg (HCT116 human tumor; [9]): 36.8 days
- Death due to the product, with day of death (HCT116 human tumor; [9]): 0/8
- Log cell kill (HCT116 human tumor; [9]): 1.7
- Survivors without tumor at day 144 (HCT116 human tumor; [9]): 0/8
- T-C (HCT116 human tumor; [9]): 18.3 days
- Comments (activity) (HCT116 human tumor; VEGF Trap alone, 40.0 mg/kg s.c. days 12, 15, 18, total 120.0 mg/kg, group 2 (HDT)): active
- Weight loss of the mouse (date of low-point) (HCT116 human tumor; VEGF Trap alone, 40.0 mg/kg s.c. days 12, 15, 18, total 120.0 mg/kg, group 2, low-point day 13): −3.1 (13) %
- tolerability (HCT116 human tumor; VEGF Trap alone, all the dosages tested (2.5 to 40 mg/kg/administration s.c.)): well-tolerated
- binding to VEGF-B (selectivity profile) (VEGF-B): also binds
